# In US9611284B2, “Prostaglandin-bisphosphonate conjugate compounds, methods of making same, and uses thereof” (Simon Fraser University, priority 2010, dated 2017):
# Experiments:
# [1] = Chemical stability of conjugate 8 in 0.1 N NaOH; type: physicochemical; details: room temperature, 24 hours
# [2] = Uptake and release of radiolabelled conjugate 8, tritium levels in long bones; type: in vivo, female Sprauge-Dawley rats; details: rat, 5 mg/kg intravenous
# Procedure: Uptake and Release of Conjugate 8: A solution was prepared of carbamate conjugate 8 (specific activity=15.4 mCi/mmol) in PBS. The conjugate was administered intravenously to female Sprauge-Dawley rats at 5 mg/kg. Triplicate sets of rats were euthanized at 1, 7, 14 and 28 days and tritium levels in bone were measured by incineration of the long bones in a biological oxidizer. After an initial 1 day uptake of 9.4%, 5.6% of the initial dose remained after 14 days.
structure (smiles),measurement,setting,value
CCOC(=O)CCCCCCN1C(=O)CC[C@@H]1/C=C/[C@@H](OC(=O)NCCCC(O)(P(=O)(O)O)P(=O)(O)O)C(F)(F)c1ccccc1 [Conjugate 8],hydrolysis of the carbamate coupling,[1],not hydrolyzed
same,hydrolysis of the ethyl ester,[1],essentially quantitatively
same,% of Initial 3H Dose Remaining,[2]; 1 day,9.4%
same,% of Initial 3H Dose Remaining,[2]; 7 days,8.0%
same,% of Initial 3H Dose Remaining,"[2]; 14 days, 5 mg/kg",6.2%
same,% of Initial 3H Dose Remaining,[2]; 28 days,5.6%
